Measured values: patent US9687529B2, “Method of controlling coagulation” (Duke University, priority 2011, dated 2017)

Experiments:
human blood = test: Ex vivo extracorporeal oxygenator minicircuit with ACT+ monitoring; conditions: human blood in ex vivo minicircuit; average donor baseline 115 seconds; FIG. 25 doses: UFH 5 U/mL, 9.3T 1 μM, 11F7T 2 μM, R9D-14T 5 μM, 11F7T 0.5 μM+R9D-14T 5 μM
Procedure: The extracorporeal minicircuit consisted of a sample line, custom-designed 8 mL Plexiglas® venous reservoir, a mechanical roller pump (MasterFlex®; Cole-Parmer Instrument Co., Vernon Hills, Ill.), and a custom-designed small-volume oxygenator that are all connected by MasterFlex precision silicone tubing (Cole-Parmer Instrument Co.) (de Lange et al, Br J Anaesth 99:177-83 (2007), de Lange et al, J Cardiothorac Surg 3:51 (2008). The 4 mL priming volume oxygenator is comprised of two Plexiglas® shells (12.8 cm×12.8 cm×2.7 cm) that cover a disposable three layer artificial diffusion membrane comprised of hollow polypropylene fibers glued together in a crosswise fashion. The surface area available for gas exchange is 558 cm^2. To prevent heat loss, one of the shells has an integrated heat exchanger, and the temperature was maintained at approximately 33° C. with a circulating water bath system (Gaymar Industries, Orchard Park, N.Y.). A MEAS reusable temperature probe (Model 451, Measurement Specialties Inc., Dayton, Ohio) was inserted into the reservoir to continuously measure the temperature, and an in-line flow probe (2N806 flow probe and T208 volume flowmeter; Transonics Systems, Inc., Ithaca, N.Y.) was used to continuously measure the blood flow. The circuit blood O2 level was maintained at 95% and the CO2 was maintained at 5%.
The minicircuit was primed with phosphate buffered saline (PBS) at a flow rate of 50 mL/min for approximately 30 min. Blood was drawn from healthy, consented volunteers and anticoagulated with 3.2% sodium citrate. Approximately 25 mL of citrated blood was incubated with 500 μL of anticoagulant (i.e., UFH or aptamer) at 37° C. for 5 min. The PBS was drained from the minicircuit, and the blood was added and circulated at a rate of 50 mL/min with 95% O2/5% CO2 at approximately 33° C. […] The venous blood gases were analyzed with a GEM Premier 3000 blood gas/electrolyte analyzer (model 5700; Instrumentation Laboratories, Inc, Lexington, Mass.) to determine the hematocrit, CaCl2, O2, and CO2 levels. […]

[1] = tested on: clot formation in normal human platelet poor plasma; test: Prothrombin time (PT) plasma clotting assay; assay type: biochemical; conditions: for increase of PT clotting time: 4 μM aptamer
Procedure: The activated partial thromboplastin time (aPTT) and prothrombin time (PT) assays were performed on a model ST4 mechanical coagulometer (Diagnostica Stago, Parsippany, N.J.) as previously described (Bompiani et al, J Thromb Haemost 10:870-80 (2012)). For the aPTT, 50 μL of normal human platelet poor plasma (PPP) was incubated with 50 μL TriniClot aPTT S (Trinity BioTech, Bray, Co Wicklow, Ireland) at 37° C. for 5 min. Aptamer(s) (5 μL) was added, and the mixture was incubated at 37° C. for another 5 min, and CaCl2 (50 μL) was added to initiate the assay. For the PT, 50 μL of normal human PPP was incubated with 5 μL of aptamer(s) at 37° C. for 5 min. TriniClot PT Excel reagent (Trinity BioTech, Bray, Co Wicklow, Ireland) (100 μL) was added to initiate the reaction. Assays with a combination of two aptamers contain an equimolar concentration of each individual aptamer, and the data shown are the total RNA concentration.
To compare the anticoagulant effect of these four aptamers, dose-response titrations were performed in several clinical plasma-based clotting assays. The activated partial thromboplastin time (aPTT) and prothrombin time (PT) are plasma clotting assays that are clinically used to probe for abnormalities in the intrinsic and extrinsic coagulation pathways, respectively (Van Cott et al, editors. Jacobs & DeMott laboratory test handbook. 5th ed. Hudson Ohio: Lexi-Comp. p. 327-58 (2001)). These relatively simple assays measure the time until clot formation in platelet poor plasma (PPP) in response to either robust tissue factor (TF), or contact stimulation via negatively charged surfaces (i.e., silica, kaolin, celite). […] At high concentrations, the prothrombin aptamer (R9D-14T) was the most robust anticoagulant and inhibited greater than 96% of prothrombin activity in the aPTT and PT. At 4 μM, R9D-14T increased the aPTT clotting time approximately 18-fold and the PT clotting time greater than 80-fold (exceeded the assay limit of 999 sec). […] At the same dose, the FIXa aptamer (9.3T) inhibited greater than 99% of FIX activity and increased the aPTT clotting time approximately 5.5-fold, while the FVIIa aptamer (7S-1) increased the PT clotting time 3-fold and inhibited greater than 99% of FVII activity (FIGS. 20A and 20B).

Substance | ACT+ maximal clotting time (human blood) | increase of PT clotting time [1] | PT clotting time ([1]; 4 μM, assay limit 999 sec) [s] | prothrombin activity inhibited ([1]; PT, high concentrations)
9.3T: FIXa aptamer, 2'-fluoropyrimidine modified RNA, SEQ ID NO: 1 (AUGGGGACUAUACCGCGUAAUGCUGCCUCCCCAU; 2'-fluoro at CU, RNA at AG, backbone not given here) [Aptamer 9.3T] | had no effect | – | – | –
11F7T: FXa aptamer, 2'-fluoropyrimidine modified RNA, SEQ ID NO: 2 (GAGAGCCCCAGCGAGAUAAUACUUGGCCCCGCUCUU; 2'-fluoro at CU, RNA at AG, backbone not given here) [Aptamer 11F7T] | 213 s | approximately 8 fold | – | –
R9D-14T: prothrombin/thrombin aptamer, 58-base truncation of RNA9D-14, SEQ ID NO: 3 (GGCGGTCGATCACACAGTTCAAACGTAATAAGCCAATGTACGAGGCAGACGACTCGCC; 2'-fluoro at CT, RNA at AG, backbone and T or U not given here) [Aptamer R9D-14T] | 365 s | greater than 80 fold | > 999 | greater than 96%
